Assay results as given in patent US6133313A, “Insecticidal avocadofurans and triolein” (The Regents of the University of California, priority 1998, dated 2000).
“Also recorded” adds a separate entry of the source.

What was measured:
Format in all cases: in vivo, Spodoptera exigua
[1] = tested on: S. exigua larvae; assay: growth inhibition and mortality of synthetic avocadofurans and triolein in diet bioassay; set-up: key to GI (growth index): growth index calculated per J. Chem. Ecol. 19:1109 (1993), imax = 3; details: for 7-d Instar / 7-d Larval Weight: mean ± SE; for mortality at 600 µg/g / mortality at 750 µg/g / mortality at 900 µg/g / mortality at 1050 µg/g / mortality at 1200 µg/g: Spodoptera exigua, feed or water, 168 h, 7 d; for LC50 (95% FL): in diet; for comparative toxicity and growth inhibition / inhibition of larval growth: in words; for Relative Growth Index (RGI) vs log concentration regression (FIG. 4): log (μg/g)
Experimental: S. exigua larvae were used in all experiments. Larvae were reared on artificial diet modified from U.S.D.A. Agric. Res. Serv., Prod. Res. Rep., 1208:1 (1969), and maintained at 28+2° C., 14:10; light:dark (L:D) photoperiod.
The colony was collected from Orange Co., Calif. and had new genetic material added within 12 months prior to the study. The age of the cohorts tested was standardized by using neonates within 12 hours of eclosion. All bioassays were maintained at 28+2° C. 75% relative humidity (RH), and at 14:10 (L:D) photoperiod with fluorescent lighting.
The insecticidal activity of the fractions was tested with artificial diet bioassays. Treated diets were prepared by transferring 750 μl of acetone solutions of each fraction (equivalent to 300 mg crude idioblast cell oil) into 50-ml polypropylene centrifuge tubes (Fisher, Pittsburgh Pa.), evaporating the acetone, adding 2 ml of 0.1% Tween-80 solution (Fisher), homogenizing with an ultrasonic homogenizer (Co le-Parmer, Chicago Ill.), and adding prepared diet to produce a final weight of 15 g containing the equivalent of 2% idioblast oil. The mixture was vortexed for 3 mm.
Control diet was prepared by mixing 2 ml of Tween solution and 13 g of artificial diet to produce a final weight of 15 g. Control and treated diets were poured into 24-well (15.9 mm diameter and 15.9 mm depth) bioassay trays (C-D International Inc., Pitman N.J.). One neonate was added per well, and trays were placed in an incubator under the previously described conditions. Twenty-four neonates were tested for each fraction and control. Mortality and larval weights were recorded after 7 days.
The effect of the synthetically produced avocado furan compounds (>95% purity) and commercially available triolein (Sigma, St. Louis, Mo.) were tested on larval growth and mortality of S exigua. Treated and control diet were prepared as previously described.
Six different compound concentrations, chosen on the basis of studies with the oil fractions, were evaluated for both 2-(pentadecyl)furan and 2-(heptadecyl)furan: 0 (control), 600, 750, 900, 1050, and 1200 μg/g. Also, six concentrations of triolein (subfraction 1-1-12) were tested: 0 (control), 7000, 8000, 9000, 10000, and 11000 μg/g.
Twenty-four neonates were used per treatment. Bioassays were conducted as described in Example 4, and replicated 4 times for each concentration (i.e., a total of 96 larvae were tested for each concentration). Larval weight, instar, and mortality were recorded after 7 days […].
(§1) EC (effective concentration) values were calculated by subtracting the mean larval weight for each treatment from the mean weight of the controls, and dividing by the mean weight of the controls. LC (lethal concentration) values were obtained using probit analysis as described in Probit Analysis (1971) Cambridge University Press, Cambridge, UK. GI (growth index) and RGI (relative growth index) values were calculated as described in J. Chem. Ecol., 19:1109 (1993), but using an imax of 3 (the stage attained by most control larvae after 7 d). Statistical comparisons were conducted using SuperAnova Abacus Concept Inc., Berkeley, Calif. (1989).

[2] = tested on: neonate S. exigua; assay: individual toxicity of avocadofurans and triolein in artificial diet; details: for effect on pupal weight (FIG. 7) / larval developmental time from neonate to pupa (FIG. 8) / Relative Growth Index (RGI) (FIG. 10): in words; for Relative Growth Index (RGI) (FIG. 10): increasing concentrations
Experimental: In this study, individual activity of avocadofurans was investigated quantitatively. For this purpose, eight concentrations of the avocadofurans (1) and (4) and triolein (8) were tested. Results are seen in FIG. 6.
Following pilot studies, eight concentrations of each were tested: 0, 0.5, 1, 1.5, 2, 2.5, 3, and 3.5 μmoles g^~1 diet. Also, five concentrations of triolein were tested: 0; 1,000; 2,000; 3,000; and 4,000 μg g^~1 diet. Because triolein was not compared to a structurally similar compound, a more standard dietary formulation of μg g-^1 was used rather than ^~ moles g^-1 in all triolein-treated bioassays.
Treated and control diet were prepared as described above. For each concentration the compounds were dissolved in 10 ml of Tween solution and mixed using an ultrasonic homogenizer. Untreated diet was added to make a total of 100 g and then vortexed for 3 mm. Control diet was prepared by mixing 10 ml of the Tween solution with 90 g of artificial diet to produce a final weight of 100 g. Control and treated diets were poured into 30 ml plastic cups. One neonate was placed in each cup and cups were held in an incubator. Fifteen larvae were tested at each concentration, and assays were replicated 4 times (total of 60 larvae/treatment). For each diet treatment, 9-d larval instar and weight, pupal weights, times to pupation, and larval mortality were recorded.
as §1

[3] = tested on: S. exigua; assay: synergistic/joint toxicity of avocadofuran and triolein combinations; details: for Mortality (%) using LC25 / Survival to pupation: in vivo; for Weight, 9-d larvae / Weight, Pupae: mean ± spread; for Developmental times: neonate-pupa, in d (unit assumed)
From the text: The treatments were as follows: Control, 2-(pentadecyl)furan, 2-(heptadecyl)furan, triolein, individually, and 2-(pentadecyl)furan combined with 2-(heptadecyl)furan and triolein, 2-(pentadecyl)furan combined with triolein, and 2-(heptadecyl)furan combined with triolein. Because the combined LC25 s for both avocadofurans exceed their LC50 values, a concentration for each was adjusted so that when added it would approximate the value of the avocadofurans LC50 (see Table 2). These concentrations were used whenever both avocadofurans were combined in the same treatment. Treatments were replicated four times, with 15 larvae per replicate to a total of 60 larvae/treatment.
Joint effects were determined by testing all combinations of LC25 s (estimated from probit lines shown in Table 1) of the three compounds for toxicity to S. exigua. The treatments were: control, 2-(pentadecyl)furan, 2-(heptadecyl)furan, triolein, 2-(pentadecyl)furan+triolein, 2-(heptadecyl)furan+triolein, and 2-(pentadecyl)furan+2-(heptadecyl)furan+triolein. Because the combined LC25 s for both avocadofurans exceeded their LC50 values (due to a steep slope of their LC lines), a concentration for each was used so that when added together it would approximate the value of the avocadofurans LC50 (Table 1). These concentrations were used whenever both avocadofurans were combined in the same treatment.
Treatments were replicated four times, with 15 larvae per replicate (total of 60 larvae/treatment). Dietary treatment preparations and bioassay procedures were conducted as described in Example 4. For each diet treatment, 9-d larval instar and weight, pupal weights, times to pupation, and larval mortality were recorded.

[4] = lowest concentration vs controls

## CCCCCCCCCCCCCCCCCc1ccco1 [2-(heptadecyl)furan (4), 2-(heptadecyl)furan]
[1]; 600 μg/g
  GI (growth index): 0.73
  percent reduction in larval weight vs control: 79.46%
  7-d Instar: 2.25 ± 0.06
  7-d Larval Weight: 6.44 ± 0.44 mg
  mortality at 600 µg/g: 2.08%
[1]; 750 μg/g
  GI (growth index): 0.62
  percent reduction in larval weight vs control: 87.14%
  7-d Instar: 1.95 ± 0.06
  7-d Larval Weight: 4.03 ± 0.44 mg
  mortality at 750 µg/g: 4.2%
[1]; 900 μg/g
  GI (growth index): 0.56
  percent reduction in larval weight vs control: 89.84%
  7-d Instar: 1.87 ± 0.06
  7-d Larval Weight: 3.19 ± 0.30 mg
  mortality at 900 µg/g: 10.4%
[1]; 1050 μg/g
  GI (growth index): 0.46
  percent reduction in larval weight vs control: 93.55%
  7-d Instar: 1.65 ± 0.07
  7-d Larval Weight: 2.02 ± 0.16 mg
  mortality at 1050 µg/g: 16.7%
[1]; 1200 μg/g
  GI (growth index): 0.23
  percent reduction in larval weight vs control: 95.93%
  7-d Instar: 1.43 ± 0.08
  7-d Larval Weight: 1.28 ± 0.16 mg
  mortality at 1200 µg/g: 54.2%
[1]; 600 to 900 μg/g
  mortality: < 15%
  reduction of larval development and growth: > 75%
[1]
  LC50 (95% FL): 1206 µg/g
  comparative toxicity and growth inhibition: more toxic and growth inhibitory to S. exigua than either of the unsaturated compounds (2) and (6)
  inhibition of larval growth: significantly inhibited larval growth
  Relative Growth Index (RGI) vs log concentration regression (FIG. 4): y=4.82-1.47*log(x), r^2 =0.89
[2]; avocadofurans, larval stage
  LC25 (95% FL): 1.02(0.70-1.29) μmoles g^-1 of diet
[2]
  effect on pupal weight (FIG. 7): significantly reduced
  larval developmental time from neonate to pupa (FIG. 8): significantly prolonged
  Relative Growth Index (RGI) (FIG. 10): decreased with increasing concentrations
[2]; larval stage
  LC50: 2.1 μmoles g^-1 diet
[2]; [4]
  concentration significantly reducing pupal weight (FIG. 7A): ≥ 3 µmol/g
[3]
  Mortality (%) using LC25: 23.3%
  Survival to pupation: 76.6%
  Weight, 9-d larvae: 54.2 ± 5.9 mg
  Weight, Pupae: 112.8 ± 2.6 mg
  Developmental times: 18.0

## CCCCCCCCCCCCCCCc1ccco1 [2-(pentadecyl)furan (1), 2-(pentadecyl)furan]
[1]; 600 μg/g
  GI (growth index): 0.69
  percent reduction in larval weight vs control: 72.89%
  7-d Instar: 2.29 ± 0.07
  7-d Larval Weight: 8.50 ± 0.95 mg
  mortality at 600 µg/g: 9.37%
[1]; 750 μg/g
  GI (growth index): 0.55
  percent reduction in larval weight vs control: 85.83%
  7-d Instar: 2.04 ± 0.07
  7-d Larval Weight: 4.44 ± 0.45 mg
  mortality at 750 µg/g: 18.8%
[1]; 900 μg/g
  GI (growth index): 0.26
  percent reduction in larval weight vs control: 90.35%
  7-d Instar: 1.74 ± 0.07
  7-d Larval Weight: 3.03 ± 0.35 mg
  mortality at 900 µg/g: 32.3%
[1]; 1050 μg/g
  GI (growth index): 0.25
  percent reduction in larval weight vs control: 95.50%
  7-d Instar: 1.61 ± 0.07
  7-d Larval Weight: 1.41 ± 0.15 mg
  mortality at 1050 µg/g: 54.2%
[1]; 1200 μg/g
  GI (growth index): 0.15
  percent reduction in larval weight vs control: 95.78%
  7-d Instar: 1.56 ± 0.09
  7-d Larval Weight: 1.32 ± 0.19 mg
  mortality at 1200 µg/g: 71.9%
[1]; concentrations above 600 μg/g
  reduction of larval development: > 70%
[1]
  LC50 (95% FL): 1031 µg/g
  inhibition of larval growth: significantly inhibited larval growth
  Relative Growth Index (RGI) vs log concentration regression (FIG. 4): y=5.66-1.79*log(x), r^2 =0.94
[1]; listed as 1
  comparative toxicity and growth inhibition: more toxic and growth inhibitory to S. exigua than either of the unsaturated compounds (2) and (6); also recorded: the most toxic
[1]; listed as 2-(pentadecyl)furan
  comparative toxicity and growth inhibition: most active of the two major compounds from that subfraction
[2]; 1.5 μmoles g^-1 or higher, 9 d
  growth inhibition (FIG. 6A): more than 50%
[2]; avocadofurans, larval stage
  LC25 (95% FL): 1.76(1.55-1.93) μmoles g^-1 of diet
  LC50 (95% FL): 2.24(2.08-2.39) μmoles g^-1 of diet
[2]
  effect on pupal weight (FIG. 7): significantly reduced
  larval developmental time from neonate to pupa (FIG. 8): significantly prolonged
  Relative Growth Index (RGI) (FIG. 10): decreased with increasing concentrations
[2]; larval stage
  LC50: 2.2 μmoles g^-1 diet
[2]; [4]
  concentration significantly reducing 9-day larval weight (FIG. 6A): ≥ 1.5 µmol/g
  concentration significantly reducing pupal weight (FIG. 7A): ≥ 3 µmol/g
[3]
  Mortality (%) using LC25: 36.7%
  Survival to pupation: 63.3%
  Weight, 9-d larvae: 22.4 ± 2.9 mg
  Weight, Pupae: 104.3 ± 3.2 mg
  Developmental times: 19.8 ± 0.7
